Assay results from US20030162803A1, “Anhydrovinblastine for the treatment of cancer” (priority 1997, published 2003).
Structures can show the parent of a compound that is named as a salt. Where two headings read alike, the source gives them in different places.

Tests used:
[1] = test system: MCF7 human breast carcinoma; test: MTT cytotoxicity assay, MCF7; type: cell-based; details: read-out: Drug Ic50
Protocol: (§1) Cytotoxicity experiments on AHVB were performed as direct comparisons with vincristine and Navelbine™ in order to assess its inherent antineoplastic profile against a variety of tumor cell types relative to other relevant vinca alkaloids. The cytotoxicity of AHVB was investigated in vitro against a panel of tumor cell lines of varying lineage in order to determine the specificity of its antitumor activity with respect to cell type.
(§2) Standard dose response cytotoxicity assays (R. Mosmass, J. Immunol. Meth., 65:55-64, 1983) were utilized to determine the IC50 (drug concentration required to induce 50% inhibition of tumor cell growth) for vincristine, Navelbine™ and AHVB. The indicated cell lines were obtained from either the ATCC or NCI tumor repository and were cultured in tissue culture media by standard techniques well known to those skilled in the art, prior to dilution to a defined cell concentration required for the studies in 96 well plates.
(§3) A wide range of drug concentrations were exposed to tumor cells growing at log phase in 96-well microtitre plates. Cell concentrations depended on the cell line as well as the length of time to be cultured. […] MCF7 cells were plated at a concentration of 7,000 and 1,500 cells per well for studies lasting 3 and 7 days, respectively. H460 cells were plated at a concentration of 2,500 and 1,000 cells per well for studies lasting 3 and 7 days, respectively. K562 cells were plated at a concentration of 1,500 and 10,000 cells per well for studies lasting 1 and 3 days, respectively. LS180 cells were plated at a concentration of 5,000 and 20,00 cells per well for studies lasting 3 and 7 days, respectively.
(§4) Subsequently the plates were incubated for the indicated time period. At specified times, cells were washed and subsequently exposed to the dye inclusion marker MTT (3-(4,5-dimethylthiazol-2-yl)-2,5-diphenyl tetrazolium), which accumulated into viable cells. MTT was added to the cells at a final concentration of 50 μg per well. After a 4 hour incubation, the cells were washed free of media and unreacted MTT, prior to addition of DMSO which was required to solubilize the insoluble formazan precipitate that formed in viable cells. After the sample was mixed through repeated pipetting, the coloured product was measured using a plate reader operating at 570 nm. The absorbance values obtained for cells cultured in the absence of drug was assumed to represent 100% viability.

[2] = test system: H460 human non-small cell lung carcinoma; test: MTT cytotoxicity assay, H460; type: cell-based; details: read-out: Drug Ic50
Protocol: as §1, §2, §3, §4

[3] = test system: K562 human erythroleukaemia; test: MTT cytotoxicity assay, K562; type: cell-based; details: read-out: Drug Ic50
Protocol: as §1, §2, §3, §4

[4] = test system: LS180 human colon carcinoma; test: MTT cytotoxicity assay, LS180; type: cell-based; details: read-out: Drug Ic50
Protocol: as §1, §2, §3, §4

[5] = Range-finding acute (14 day) single dose toxicity in healthy male Nb rats; type: in vivo; details: single intraperitoneal injection; for subacutely toxic dosage (highest dose which allowed survival of all animals in a group): 14 day
Protocol: Range-finding acute (14 day), single dose toxicity studies were performed in healthy male Nb rats in order to determine the maximum tolerated dose of vincristine sulfate, Navelbine T and AHVB when administered as a single, intraperitoneal injection in these rodents (see Table 2).
To this end, healthy non-tumor bearing male Nb rats (weight range 333-399 grams) were divided in groups of 3 animals. Each group was used to test one drug at one dosage. The volumes within which the drugs were administered depended on the concentration of the drug solution (in saline) and the weight of the animals, and ranged from 0.1-1.0 ml. Saline was used as a control. The highest dose of each drug which allowed survival of all animals in a group (3 out of 3) was taken as the subacutely toxic dosage for the drug, i.e. 0.7 mg/kg for vincristine, 2.0 mg/kg for Navelbine™ and 3.0 mg/kg for AHVB.
The health of the animals was assessed by daily weight measurements in addition to behavioural indications of stress. Animals continued to be monitored throughout the complete 14 day study period. Animals were euthanized in the event of signs of severe stress or weight loss in excess of 20%. All animals were necropsied at the end of the study period or at the time of premature euthanasia.

[6] = test system: Nb2-U17 lymphoma transplants; test: Rat U17 lymphoma model (Nb2-U17 tumor transplants); type: in vivo, Nb rats; details: for anti-tumor potency compared: 50% of individual maximum tolerated doses, FIG. 3
Excerpt: The U17 cell line was originally derived from a transplantable malignant lymphoma that arose spontaneously in male Noble rats (British Columbia Cancer Research Centre Joint Animal Breeding Facility with parents obtained from the National Institutes of Health, Bethesda, Md.). The cell line is prolactin dependent and can readily be cultured in vitro. U17 derived solid tumors are generated by subcutaneous injection (via the trocar method) of a small (2 mm^2) piece of tumor tissue obtained from male Noble rat. Tumor tissue used for the implants arose two weeks after injection of 5×10^6 U17 cells (from culture) subcutaneously in the nape of the neck. For assessing the anti-tumor activity of AHVB, tumor bearing animals (2-4 gm tumors) were given a single treatment of drug and tumor size was measured as a function of time following treatment. The anti-tumor activity was assessed at a series of different doses in order to determine the maximum therapeutic dose of AHVB. Comparative studies between vincristine, vinblastine and AHVB were performed. For these studies anti-tumor activity was determined at the maximum therapeutic dose of each drug.
Cultures of the non-metastatic, pre-T Nb2 lymphoma line originally developed at The University of British Columbia and designated Nb2-U17 (Anticancer Research 14:2485-2492, 1994), and are available from the British Columbia Cancer Research Centre. Cells from exponentially growing Nb2-U17 suspension cultures were injected subcutaneously into methoxyflurane-anaesthetised, mature male Nb rats (5 rats; 310-380 grams; 5×10^6 cells/rat in 1 ml of culture medium) at the nape of the neck using a 1.5″ 20-gauge needle. […]
The oncolytic effects of each of the three drugs were assessed at a subacutely toxic dose, determined for each drug in preliminary studies using non-tumor-bearing, mature male Nb rats, i.e. 3.0, 2.0 and 0.7 mg/kg for AHVB, Navelbine™ and vincristine, respectively as illustrated in FIG. 2. In addition, each drug was assessed at 50% and 25% of its subacutely toxic dose. […]

[7] = test system: P388 lymphocytic leukaemia; test: MTT cytotoxicity assay, P388; details: for IC50: read-out: Drug Ic50
Protocol: Standard dose response cytotoxicity assays (R. Mosmass, J. Immunol. Meth., 65:55-64, 1983) were utilized to determine the IC50 (drug concentration required to induce 50% inhibition of tumor cell growth) for vincristine, Navelbine™ and AHVB.
A wide range of drug concentrations were exposed to tumor cells growing at log phase in 96-well microtitre plates. Cell concentrations depended on the cell line as well as the length of time to be cultured. Typically, P388 cells were plated at a concentration of 30,000, 2,000 and 750 cells per well for studies lasting 1, 3 and 7 days, respectively. MCF7 cells were plated at a concentration of 7,000 and 1,500 cells per well for studies lasting 3 and 7 days, respectively. H460 cells were plated at a concentration of 2,500 and 1,000 cells per well for studies lasting 3 and 7 days, respectively. K562 cells were plated at a concentration of 1,500 and 10,000 cells per well for studies lasting 1 and 3 days, respectively. LS180 cells were plated at a concentration of 5,000 and 20,00 cells per well for studies lasting 3 and 7 days, respectively. After plating all cell lines were incubated (CO2 incubator at 37° C., 5% CO2) for 24 hours prior to addition of the cytotoxic agent (See Table 1).
as §4
A cytotoxicity curve was generated to estimate the IC50 of vincristine, Navelbine™ and AHVB in the murine P388 cell line (see FIG. 5). In this study, P388 cells derived from an ascitic tumor grown in BDF1 were first separated from red cells employing Ficoll-Paque. Isolated white cells were washed twice then placed in serum containing tissue culture media (1×10^5 cells per ml of RPMI 1640 supplemented with L-glutamine, penicillin, streptomycin and 10% fetal bovine serum) and cultured for 2 hours. All non-adherent cells were collected and that cell population was defined as P388 cells and used for cytotoxicity assays 24 hours later.

[8] = Homo sapiens, 72 h, MCF7, exposure time 3 days
[9] = Homo sapiens, 168 h, MCF7, exposure time 7 days
[10] = Homo sapiens, NCI-H460, 72 h, H460, exposure time 3 days
[11] = Homo sapiens, NCI-H460, 168 h, H460, exposure time 7 days
[12] = Homo sapiens, 24 h, K562, exposure time 1 day
[13] = Homo sapiens, 72 h, K562, exposure time 3 days
[14] = Homo sapiens, 72 h, LS180, exposure time 3 days
[15] = Homo sapiens, 168 h, LS180, exposure time 7 days

Row | SMILES | IC50 [1, 8] [nM] | IC50 [1, 9] [nM] | IC50 [2, 10] [nM] | IC50 [2, 11] [nM] | IC50 [3, 12] [nM] | IC50 [3, 13] [nM] | IC50 [4, 14] [nM] | IC50 [4, 15] [nM] | Mortality (surviving rats/injected rats) ([5]; 10 mg/kg) | subacutely toxic dosage (highest dose which allowed survival of all animals in a group) [5] [mg/kg] | anti-tumor potency compared [6] | IC50 ([7]; Mus musculus, P388, 24 h) [nM] | IC50 ([7]; Mus musculus, P388, 72 h) [nM] | IC50 ([7]; Mus musculus, P388, 168 h) [nM] | other results
1 | CCC1=C[C@@H]2CN(C1)Cc1c([nH]c3ccccc13)[C@@](C(=O)OC)(c1cc3c(cc1OC)N(C)[C@H]1[C@@](O)(C(=O)OC)[C@H](OC(C)=O)[C@]4(CC)C=CCN5CC[C@]31[C@@H]54)C2 [Navelbine, 3′,4′-didehydro-4′-deoxy-C′-norvincaleukoblastine-di-L-tartrate] | > 2500 | 2.6 ± 1.6 | 0.3 | > 0.5 | > 50 | 2.5 ± 2.2 | > 50 | 0.5 | 0 surviving rats/injected rats | 2.0 | less potent than AHVB | 20 | 0.7 ± 0.3 | 2.5 | Mortality (surviving rats/injected rats) ([5]; 5 mg/kg): 0 surviving rats/injected rats
2 | CCC1=C[C@H]2CN(CCc3c([nH]c4ccccc34)[C@@](C(=O)OC)(c3cc4c(cc3OC)N(C)[C@H]3[C@@](O)(C(=O)OC)[C@H](OC(C)=O)[C@]5(CC)C=CCN6CC[C@]43[C@@H]65)C2)C1 [AHVB, 3′,4′-anhydrovinblastine] | – | – | – | – | – | – | – | – | 0 surviving rats/injected rats | 3.0 | less potent than vincristine | – | – | – | IC50 ([1]; MCF7, exposure time 3 days): > 2500 nM; IC50 ([1]; MCF7, exposure time 7 days): 31.3 ± 12.4 nM; IC50 ([2]; H460, exposure time 3 days): 10 nM; IC50 ([2]; H460, exposure time 7 days): 5 nM; IC50 ([3]; K562, exposure time 1 day): > 50 nM; IC50 ([3]; K562, exposure time 3 days): 18.8 ± 8.8 nM; IC50 ([4]; LS180, exposure time 3 days): > 50 nM; IC50 ([4]; LS180, exposure time 7 days): 17.5 nM; Mortality (surviving rats/injected rats) ([5]; 4.4 mg/kg): 0 surviving rats/injected rats; fold less active on per molar basis than vincristine and Navelbine ([7]; in vitro tests, Table I and FIG. 5): 10 to 15 fold; IC50 ([7]; P388, exposure time 1 day): 140 ± 53 nM; IC50 ([7]; P388, exposure time 3 days): 15 ± 8.7 nM; IC50 ([7]; P388, exposure time 7 days): 20 nM
3 | CC[C@]1(O)C[C@H]2CN(CCc3c([nH]c4ccccc34)[C@@](C(=O)OC)(c3cc4c(cc3OC)N(C=O)[C@H]3[C@@](O)(C(=O)OC)[C@H](OC(C)=O)[C@]5(CC)C=CCN6CC[C@]43[C@@H]65)C2)C1 [Vincristine, Sulfate of 22-oxovincaleukoblastine] | > 2500 | 2.6 ± 1.6 | 3.5 | 2.5 | > 50 | 1.5 ± 0.4 | > 50 | 1.5 | – | 0.7 | – | 11 ± 3.6 | 1 ± 0.3 | 2 | Mortality (surviving rats/injected rats) ([5]; 1 mg/kg): 0 surviving rats/injected rats; recurrence of tumors ([6]; single intraperitoneal subacutely toxic dose, FIG. 2): not observed
